We go through five molecules from patent publication US9669003B2, “Use of flavone and flavanone derivatives in preparation of sedative and hypnotic drugs” (priority 2012, dated 2017).

Structures are written as SMILES. Marks after values point to notes of the source that are not given here.

Common to all, as to assay type: in vivo
For experiment [1], the system named is Kunming mice. In words: Influence on autonomic activity of normal mice (ZIL-2 mice autonomic activity meter, counts within 10 min). The conditions noted are these: intragastric, x ± s, n = 10; for Times of activities in 1 h after drug administration/10 min: 1 h after administration; for Times of activities in 2 h after drug administration/10 min: 2 h after administration; for Times of activities in 24 h after drug administration/10 min: 24 h after administration. In outline: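 Kunming mice (10 per group, half each sex) were dosed at 25, 50 or 100 mg/kg in 0.5% CMC-Na. Spontaneous activity counts over 10 min were recorded at 1 h, 2 h and 24 h post-dose. Groups were compared by ANOVA with Dunnett's test after Levene's check.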

Experiment [2] concerns Kunming mice. In words: Influence on hypnosis effect with pentobarbital sodium doses below the threshold (25 mg/kg i.p.). The note with it: pentobarbital sodium 25 mg/kg i.p. 60 min later, sleep observed in 30 min, n = 10. In outline: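 Kunming mice (10 per group, half female) given single oral doses of 25, 50 or 100 mg/kg in 0.5% CMC-Na; 60 min later pentobarbital sodium 25 mg/kg i.p. Sleep (righting reflex lost >1 min) scored within 30 min as percentage asleep, χ2 test.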

Experiment [3] has as its system Kunming mice. In words: Influence on hypnosis effect with pentobarbital sodium doses at the threshold (50 mg/kg i.p.). The note with it: pentobarbital sodium 50 mg/kg i.p. 60 min later, x ± s, n = 10. Put shortly: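 Kunming mice (10/group, half each sex) received compound in 0.5% CMC-Na intragastrically at 25, 50 or 100 mg/kg; 60 min later given 0.3% sodium pentobarbital 50 mg/kg i.p. Sleep latency and duration recorded by loss of righting reflex over 1 min; ANOVA and χ2 for sleep incidence.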

The mark [4] stands for this setting: test drug 25 mg/kg intragastric single dose.
Setting [5] is: test drug 50 mg/kg intragastric single dose.
[6] abbreviates: test drug 100 mg/kg intragastric single dose.
Where [7] appears, read: 25 mg/kg intragastric single dose.
Where [8] appears, read: 50 mg/kg intragastric single dose.
The mark [9] stands for this setting: 100 mg/kg intragastric single dose.

`CC=Cc1cc(-c2cc(=O)c3c(CCCCC)cc(C(=O)O)cc3o2)cc(C(=O)O)c1C#N` [Example 26]: the “Times of activities in 1 h after drug administration/10 min” value (from here on “Times of activities in 1 h”) with Kunming mice [1] (25 mg/kg) is reported as 310.7 ± 59.5 /10 min; in the experiment on Kunming mice [1] (50 mg/kg), 284.7 ± 46.1 /10 min; in the experiment on Kunming mice [1] (100 mg/kg), 263.6 ± 42.4 /10 min. Further, the “Times of activities in 2 h after drug administration/10 min” value (“Times of activities in 2 h” for short) in the experiment with Kunming mice [1] (25 mg/kg) was 279.0 ± 32.2 /10 min; with Kunming mice [1] (50 mg/kg), 267.1 ± 43.5 /10 min; with Kunming mice [1] (100 mg/kg), 245.6 ± 40.8 /10 min. For the same molecule, the “Times of activities in 24 h after drug administration/10 min” value (“Times of activities in 24 h” for short) is 313.5 ± 68.8 /10 min in the experiment with Kunming mice [1] (25 mg/kg), 314.1 ± 82.3 /10 min with Kunming mice [1] (50 mg/kg) and 322.6 ± 61.2 /10 min with Kunming mice [1] (100 mg/kg). For the same molecule, the “Number of sleeping animals” value in the experiment with Kunming mice [2] (setting [4]) is recorded as 4; in the experiment with Kunming mice [2] (setting [5]) it was 5; in the experiment on Kunming mice [2] (setting [6]), 7. The results for the “rate of sleeping (%)” value in the experiment on Kunming mice [2] (setting [4]), in the experiment with Kunming mice [2] (setting [5]) and with Kunming mice [2] (setting [6]) were 40* %, 50** % and 70** %, respectively. Further, the duration of sleep with Kunming mice [3] (setting [7]) turned out to be 23.01 ± 25.99 min; with Kunming mice [3] (setting [8]), 28.69 ± 26.56 min; with Kunming mice [3] (setting [9]), 65.28 ± 46.29 min. The figures for the time to sleep with Kunming mice [3] (setting [7]), in the experiment with Kunming mice [3] (setting [8]) and in the experiment with Kunming mice [3] (setting [9]) were 5.38 ± 2.22 min, 5.12 ± 2.32 min and 3.24 ± 1.16 min, respectively.
In the case of `COc1ccc(-c2cc(=O)c3cc(OC)c(OC)c(OC)c3o2)cc1OC` [Example 27], the “Times of activities in 1 h” value is 291.3 ± 52.1 /10 min in the experiment with Kunming mice [1] (25 mg/kg), 169.6 ± 51.3 /10 min in the experiment with Kunming mice [1] (50 mg/kg) and 124.2 ± 39.4 /10 min in the experiment with Kunming mice [1] (100 mg/kg). Also, the “Times of activities in 2 h” value with Kunming mice [1] (25 mg/kg) is recorded as 282.2 ± 41.5 /10 min; in the experiment with Kunming mice [1] (50 mg/kg) it was 193.2 ± 56.4 /10 min; in the experiment on Kunming mice [1] (100 mg/kg), 138.9 ± 48.9 /10 min. Also, the “Times of activities in 24 h” value was 293.6 ± 82.9 /10 min with Kunming mice [1] (25 mg/kg), 295.7 ± 92.3 /10 min in the experiment with Kunming mice [1] (50 mg/kg) and 278.6 ± 92.7 /10 min with Kunming mice [1] (100 mg/kg). Moreover, the “Number of sleeping animals” value is 5 in the experiment with Kunming mice [2] (setting [4]), 6 in the experiment with Kunming mice [2] (setting [5]) and 7 in the experiment on Kunming mice [2] (setting [6]). For the same molecule, the “rate of sleeping (%)” value in the experiment with Kunming mice [2] (setting [4]) is recorded as 50** %; with Kunming mice [2] (setting [5]), 60** %; in the experiment with Kunming mice [2] (setting [6]) it was 70** %. Moreover, the duration of sleep is listed as 31.32 ± 22.99 min in the experiment with Kunming mice [3] (setting [7]), 60.34 ± 16.90 min in the experiment with Kunming mice [3] (setting [8]) and 62.15 ± 33.37 min in the experiment on Kunming mice [3] (setting [9]). The time to sleep in the experiment with Kunming mice [3] (setting [7]) is given as 4.88 ± 1.89 min; with Kunming mice [3] (setting [8]), 4.15 ± 1.65 min; in the experiment with Kunming mice [3] (setting [9]) it was 3.73 ± 1.47 min.
Consider `N#CSc1ccc(-c2cc(=O)c3cc(N)c(F)c(C#N)c3o2)cc1O` [Example 28], for which the “Times of activities in 1 h” value with Kunming mice [1] (25 mg/kg) was 289.8 ± 50.1 /10 min; in the experiment with Kunming mice [1] (50 mg/kg), 248.9 ± 61.1 /10 min; with Kunming mice [1] (100 mg/kg) it was 144.2 ± 32.5 /10 min. Further, the “Times of activities in 2 h” value in the experiment with Kunming mice [1] (25 mg/kg) is recorded as 278.3 ± 42.9 /10 min; in the experiment with Kunming mice [1] (50 mg/kg) it was 260.8 ± 58.1 /10 min; with Kunming mice [1] (100 mg/kg), 237.5 ± 44.3 /10 min. Besides, the “Times of activities in 24 h” value in the experiment on Kunming mice [1] (25 mg/kg) was 315.2 ± 76.3 /10 min; in the experiment with Kunming mice [1] (50 mg/kg) it was 327.5 ± 80.7 /10 min; in the experiment with Kunming mice [1] (100 mg/kg), 308.7 ± 84.7 /10 min. Further, the “Number of sleeping animals” value stood at 3 in the experiment with Kunming mice [2] (setting [4]), 5 in the experiment with Kunming mice [2] (setting [5]) and 6 in the experiment with Kunming mice [2] (setting [6]). Moreover, the “rate of sleeping (%)” value in the experiment on Kunming mice [2] (setting [4]) is reported as 30%; with Kunming mice [2] (setting [5]), 50** %; in the experiment with Kunming mice [2] (setting [6]), 60** %. In addition, the duration of sleep came out at 27.68 ± 23.55 min in the experiment with Kunming mice [3] (setting [7]), 46.89 ± 23.61 min in the experiment on Kunming mice [3] (setting [8]) and 55.49 ± 21.02 min in the experiment with Kunming mice [3] (setting [9]). The time to sleep in the experiment on Kunming mice [3] (setting [7]) is reported as 5.48 ± 2.25 min; with Kunming mice [3] (setting [8]), 4.31 ± 1.19 min; in the experiment on Kunming mice [3] (setting [9]) it was 3.93 ± 2.45 min.
Consider `C=Cc1cc2c(=O)cc(-c3ccc(CC)c(N)c3)oc2c(C2CCSC2)c1C(N)=O` (stereo not drawn) [Example 30], for which the “Times of activities in 1 h” value with Kunming mice [1] (25 mg/kg) is 289.2 ± 45.7 /10 min; with Kunming mice [1] (50 mg/kg), 235.8 ± 42.1 /10 min; in the experiment with Kunming mice [1] (100 mg/kg), 134.6 ± 35.7 /10 min. The “Times of activities in 2 h” value is reported as 264.1 ± 42.2 /10 min in the experiment on Kunming mice [1] (25 mg/kg), 244.5 ± 48.2 /10 min in the experiment on Kunming mice [1] (50 mg/kg) and 173.5 ± 39.2 /10 min with Kunming mice [1] (100 mg/kg). For the same molecule, the “Times of activities in 24 h” value was 302.2 ± 87.3 /10 min with Kunming mice [1] (25 mg/kg), 294.5 ± 70.6 /10 min in the experiment on Kunming mice [1] (50 mg/kg) and 288.8 ± 92.1 /10 min in the experiment on Kunming mice [1] (100 mg/kg). Besides, the results for the “Number of sleeping animals” value in the experiment with Kunming mice [2] (setting [4]), in the experiment with Kunming mice [2] (setting [5]) and in the experiment on Kunming mice [2] (setting [6]) were 5, 6 and 8, respectively. Besides, the “rate of sleeping (%)” value with Kunming mice [2] (setting [4]) was 50** %; in the experiment with Kunming mice [2] (setting [5]), 60** %; with Kunming mice [2] (setting [6]), 80*** %. The duration of sleep in the experiment with Kunming mice [3] (setting [7]) is reported as 38.82 ± 15.41 min; in the experiment with Kunming mice [3] (setting [8]) it was 43.66 ± 21.43 min; with Kunming mice [3] (setting [9]), 58.74 ± 19.57 min. For the same molecule, the time to sleep was determined as 4.37 ± 1.58 min in the experiment on Kunming mice [3] (setting [7]), 3.73 ± 1.22 min with Kunming mice [3] (setting [8]) and 3.25 ± 1.31 min in the experiment with Kunming mice [3] (setting [9]).
As to `C=Cc1ccc(-c2cc(=O)c3cc(C#N)c(Cc4ccccc4)c(C=CC)c3o2)cc1[N+](=O)[O-]` [Example 32], the results for the “Times of activities in 1 h” value in the experiment with Kunming mice [1] (25 mg/kg), in the experiment with Kunming mice [1] (50 mg/kg) and in the experiment with Kunming mice [1] (100 mg/kg) were 332.1 ± 47.8 /10 min, 270.2 ± 59.3 /10 min and 245.9 ± 38.8 /10 min, respectively. Moreover, the “Times of activities in 2 h” value in the experiment with Kunming mice [1] (25 mg/kg) was 321.3 ± 53.9 /10 min; in the experiment with Kunming mice [1] (50 mg/kg), 269.3 ± 50.3 /10 min; in the experiment with Kunming mice [1] (100 mg/kg), 258.9 ± 49.9 /10 min. The “Times of activities in 24 h” value is given as 327.8 ± 93.9 /10 min in the experiment with Kunming mice [1] (25 mg/kg), 334.7 ± 95.6 /10 min in the experiment with Kunming mice [1] (50 mg/kg) and 322.7 ± 88.5 /10 min with Kunming mice [1] (100 mg/kg). For the same molecule, the “Number of sleeping animals” value with Kunming mice [2] (setting [4]) was determined as 3; in the experiment with Kunming mice [2] (setting [5]), 5; in the experiment on Kunming mice [2] (setting [6]) it was 6. Moreover, the figures for the “rate of sleeping (%)” value in the experiment on Kunming mice [2] (setting [4]), in the experiment on Kunming mice [2] (setting [5]) and with Kunming mice [2] (setting [6]) were 30%, 50** % and 60** %, respectively. Besides, the duration of sleep worked out at 25.80 ± 22.64 min in the experiment on Kunming mice [3] (setting [7]), 46.11 ± 24.53 min in the experiment on Kunming mice [3] (setting [8]) and 54.78 ± 20.89 min in the experiment with Kunming mice [3] (setting [9]). Moreover, the time to sleep with Kunming mice [3] (setting [7]) stood at 5.38 ± 2.21 min; with Kunming mice [3] (setting [8]), 4.34 ± 1.45 min; in the experiment on Kunming mice [3] (setting [9]) it was 3.86 ± 2.35 min.
